According to publication PMC6882462 (Journal of Enzyme Inhibition and Medicinal Chemistry, 2019):
Like-named read-outs stand apart in the source and are kept apart here.

Tests used:
[1] = system: human breast carcinoma cell line MCF-7; experiment: MTT antiproliferative assay against MCF-7; type: cell-based; conditions: read-out: IC50 (anticancer activity against MCF-7 cell line)
Method: All the synthesised naphthalene-chalcone derivatives 3a–3t were evaluated for their anticancer activity by 3-[4,5-dimethylthiazole-2-yl]-2,5-diphenyltetrazolium bromide (MTT) assay method against human breast carcinoma cell line MCF-7. Cisplatin was used as a reference drug. […]. […]
culture, the culture medium was removed, and cells were incubated with tetrazolium dye [3-(4,5-dimethylthiazol-2-yl)-2,5-diphenyltetrazo-lium bromide (MTT) solution for 4 h. Then, the supernatant was removed and the precipitates (formazan crystal) were […]
dissolved in DMSO. […]

xenografted tumour = system: xenografted tumour; parameters: method as in PMID 24308485; conditions: cited from earlier work
SW620 colon cancer cells = system: SW620 colon cancer cells; parameters: method as in PMID 25193463; conditions: cited from earlier work
MCF-7 cells [2] = experiment: Annexin V FITC/PI apoptosis assay; type: cell-based, human; conditions: 2.0 µM, 24 h
Method: To investigate whether compound 3a could induces apoptosis, the apoptotic effect of compound 3a and DMSO (control) were evaluated by an annexin V FITC/PI (AV/PI) dual staining assay. After treatment MCF-7 cells with compound 3a at the concentration of 2.0 µM for 24 h, the cells were labelled with the two dyes and analysed by flow cytometry. […] In addition, an increase in the early/primary apoptosis was also observed from 1.85% to 20.0% (Figure 4).
MCF-7 cells were grown in 6-well plates and treated with compound 3a (0.5, 2.0 and
10.0 μM) or DMSO for 24 h. After treatment, the cells were collected and stained with
PI (propidium iodide) for 20 min. Apoptosis was analyzed using a flow cytometer. […]

tubulin = experiment: In vitro tubulin polymerisation inhibitory assay; type: biochemical
Method: 1.3 In vitro tubulin polymerization assay
To evaluate the eﬀect of the compound 3a on tubulin assembly in vitro, varying
DMSO were incubated with purified tubulin protein in PEM buffer [100 mM PIPES
(1,4-Piperazinediethanesulfonic acid), 1 mM MgCl2, and 1 mM EGTA(ethylene glycol
tetraacetic acid)] containing 1 mM GTP and 5 % glycerol. […]

MCF-7 cells [3] = experiment: Cell cycle analysis by flow cytometry (PI); type: cell-based, human; conditions: 2.0 µM, 24 h
From the text: Many studies have reported that tubulin polymerisation inhibitors can arrest cancer cells in G2/M phase and lead to apoptosis[24]^,[25]. The potent tubulin polymerisation inhibitory activity of compound 3a promoted us to further investigate its cellular mechanisms of action in MCF-7 cancer cells by using flow cytometry analysis. In order to elucidate the molecular mechanism of compound 3a, we first studied its effect on cell cycle progression in MCF-7 cells. […] In contrast, after treatment of MCF-7 cells with compound 3a at concentrations of 2.0 µM, the accumulation of cancer cells was detected at G2/M phase by 5.5 folds compared to the control group, from 15.19% in the control group to 84.55% in the compound 3a treated group (Figure 4). […]
MCF-7 cells were seeded in 6-well plates and incubated at 37 °C for overnight and treatment with DMSO or compound 3a (0.5, 2.0 and 10.0 μM) for 24 h. The cells were washed twice with PBS, and incubated for 0.5 h at 37 °C in a PBS solution containing 1 mg/mL RNase A and propidium iodide (PI). C ell cycle was analyzed by flow cytometry (TASC240, USA).

in vitro = conditions: human

Row | SMILES | IC50 ([1]; Homo sapiens, MCF7, 48 h) | melting point | further results
1 | COc1ccc2ccccc2c1C(=O)/C=C/c1ccccc1Br [3d] | 7.63 ± 0.45 µM | 150 to 152 °C | 
2 | COc1ccc2ccccc2c1C(=O)/C=C/c1ccc2ccccc2c1 [3f] | 6.87 ± 0.26 µM | 107 to 109 °C | 
3 | COc1ccc(C(=O)/C=C/c2cccc3ccccc23)c(O)c1 [HymnPro, 2-hydroxy-4-methoxy-2′,3′-benzochalcone] |  |  | effect on xenografted tumour growth (xenografted tumour): suppressed xenografted tumour growth
4 | COc1ccc2ccccc2c1C(=O)/C=C/c1cccc2ccccc12 [3e] | 7.13 ± 0.33 µM | 162 to 163 °C | 
5 | COc1ccc(/C=C/C(=O)c2c(OC)ccc3ccccc23)cc1Br [3g] | 7.11 ± 0.4 µM | 168 to 169 °C | 
6 | N.N.[Cl][Pt][Cl] [Cisplatin, reference compound] |  |  | IC50 ([1]; 48 h): 15.2 ± 1.27 µM
7 | COc1ccc(/C=C/C(=O)c2c(OC)ccc3ccccc23)c(OC)c1OC [3c] | > 10 µM | 107 to 108 °C | 
8 | COc1ccc2ccccc2c1C(=O)/C=C/c1ccc(Br)cc1 [3b] | 4.1 ± 0.25 µM | 127 to 129 °C | 
9 | COc1cc(OC)c(/C=C/C(=O)c2c(O)ccc3ccccc23)c(OC)c1 [HMNC-74] |  |  | inhibition of clonogenicity (SW620 colon cancer cells): strongly inhibited
10 | COc1ccc(/C=C/C(=O)c2c(OC)ccc3ccccc23)cc1O [3a] | 1.42 ± 0.15 µM |  | Q1 cell fraction (MCF-7 cells [2]): 1.95%; Q4 cell fraction (MCF-7 cells [2]): 71.7%; late/secondary cellular apoptosis (Q2) (MCF-7 cells [2]; control 0.68%): 6.34%; early/primary apoptosis (Q3) (MCF-7 cells [2]; control 1.85%): 20.0%; inhibition of tubulin polymerisation (tubulin; 3.0 µM): 21%; inhibition of tubulin polymerisation (tubulin; 6.0 µM): 41%; inhibition of tubulin polymerisation (tubulin; 12.5 µM): 60%; inhibition of tubulin polymerisation (tubulin; 25 µM): 82%; IC50 (tubulin; purified tubulin, absorbance 340 nm, read-out: IC50 tubulin polymerisation inhibition): 8.4 µM; accumulation of cells at G2/M phase compared to control (MCF-7 cells [3]): 5.5 folds; cells in G1 phase (MCF-7 cells [3]): 0.04%; cells in S phase (MCF-7 cells [3]): 15.41%; cells in G2/M phase (MCF-7 cells [3]; control 15.19%): 84.55%; IC50 (in vitro): 18.3 ± 1.3 µM

Second part, led by results:

Row | IC50 ([1]; Homo sapiens, MCF7, 48 h) | melting point | SMILES | further results
11 | 8.91 ± 0.52 µM | 147 to 148 °C | COc1ccc2ccccc2c1C(=O)/C=C/c1ccc(N(C)C)cc1 [3r] | 
12 | 6.67 ± 0.25 µM | 109 to 110 °C | COc1cccc(/C=C/C(=O)c2c(OC)ccc3ccccc23)c1 [3h] | 
13 | 6.66 ± 0.27 µM |  | COc1ccc2ccccc2c1C(=O)/C=C/c1ccccc1F [3m] | 
14 | 4.74 ± 0.19 µM | 142 to 143 °C | COc1ccc2ccccc2c1C(=O)/C=C/c1ccc(Cl)cc1 [3k] | 
15 | > 10 µM | 149 to 150 °C | COc1ccc2ccccc2c1C(=O)/C=C/c1cccs1 [3j] | 
16 | 7.68 ± 0.32 µM | 147 to 149 °C | COc1cc(OC)c(OC)cc1/C=C/C(=O)c1c(OC)ccc2ccccc12 [3l] | 
17 | 7.67 ± 0.39 µM | 124 to 126 °C | COc1ccccc1/C=C/C(=O)c1c(OC)ccc2ccccc12 [3q] | 
18 | 7.23 ± 0.38 µM | 113 to 114 °C | COc1cc(/C=C/C(=O)c2c(OC)ccc3ccccc23)cc(OC)c1OC [3p] | 
19 | 7.82 ± 0.35 µM | 157 to 159 °C | COc1ccc(/C=C/C(=O)c2c(OC)ccc3ccccc23)cc1[N+](=O)[O-] [3i] | 
20 | 2.75 ± 0.26 µM |  | COc1ccc(/C=C/C(=O)c2c(OC)ccc3ccccc23)cc1N [3t] | 
21 | 7.62 ± 0.36 µM | 142 to 144 °C | COc1ccc2ccccc2c1C(=O)/C=C/c1ccccc1 [3n] | 
22 | 7.62 ± 0.3 µM | 142 to 144 °C | CCN(CC)c1ccc(/C=C/C(=O)c2c(OC)ccc3ccccc23)cc1 [3s] | 
23 | 7.11 ± 0.47 µM | 142 to 143 °C | COc1ccc2ccccc2c1C(=O)/C=C/c1cccc(F)c1 [3o] | 
